Assay results: patent US9078897B1, “Concentrated, inhalable antibiotic formulation” (ARADIGM CORPORATION, priority 2006, dated 2015)

Assays:
P. aeruginosa = conditions: cited from earlier work
IL-1 = IL-1 levels in lungs after 14 days of inhalation; type: in vivo, rats; conditions: then 28 day recovery evaluation
Source text: The explanation for this surprising effect may be that the presence of free ciprofloxacin in the lung attenuates the release of cytokines which attract macrophages into the lung.

levels of IL-1 (IL-1) | Compound | activity against P. aeruginosa (P. aeruginosa)
 | CC[C@H]1OC(=O)[C@H](C)[C@@H](O[C@H]2C[C@@](C)(OC)[C@@H](O)[C@H](C)O2)[C@H](C)[C@@H](O[C@@H]2O[C@H](C)C[C@H](N(C)C)[C@H]2O)[C@](C)(O)C[C@@H](C)CN(C)[C@H](C)[C@@H](O)[C@]1(C)O [azithromycin] | no direct activity
return to baseline values | O=C(O)c1cn(C2CC2)c2cc(N3CCNCC3)c(F)cc2c1=O [free ciprofloxacin, ciprofloxacin] | 
 | NC[C@H]1O[C@H](O[C@H]2[C@H](O)[C@@H](O[C@H]3O[C@H](CO)[C@@H](O)[C@H](N)[C@H]3O)[C@H](N)C[C@@H]2N)[C@H](N)C[C@@H]1O [tobramycin] | possesses activity
